Measured values as given in US6642217B2, “Triterpenes having human antifungal and antiyeast activity” (Naturtek, LLC, priority 2000, dated 2003).

What was measured:
[1] = tested on: Microsporum audouinni; test: Direct addition method, solid compound in Sabouraud dextrose agar; format: cell-based, Microsporum audouinii; set-up: key to Fungal growth: +++: Maximum Fungal Growth; ++: Moderate Fungal Growth; +: Minimum Fungal Growth; +/−: Very little Fungal Growth; −: No Fungal Growth; conditions: for Fungal growth: 4 mg/mL of agar, 12th day after inoculation
Protocol: (§1) Direct addition method. Sabouraud dextrose agar was prepared according to the manufacturer's instructions and 5.0 ml was dispensed in each 100×25 mm tube. The tubes were autoclaved. To each tube containing 5.0 ml of liquid agar at 45° C., 20 mg of solid test compound was added, to give a final concentration of 4 mg/ml. The agar was solidified in slants. The fungal cultures were then innoculated. The slants were incubated at 25-28 ° C. for 10-12 days, and the growth of the fungus was recorded every second day. The results in Table 2 indicate growth at the 12th day of inoculation.

[2] = tested on: Pityrosporum ovale; test: as above; format: cell-based; set-up: key: +++: Maximum Fungal Growth; ++: Moderate Fungal Growth; +: Minimum Fungal Growth; +/−: Very little Fungal Growth; −: No Fungal Growth; conditions: 4 mg/mL of agar; 12th day after inoculation
Protocol: as §1

[3] = tested on: Trichophyton rubrum; test: as above; format: cell-based; set-up: key: +++: Maximum Fungal Growth; ++: Moderate Fungal Growth; +: Minimum Fungal Growth; +/−: Very little Fungal Growth; −: No Fungal Growth; conditions: 4 mg/mL of agar; 12th day after inoculation
Protocol: as §1

[4] = tested on: Microsporum canis; test: as above; format: cell-based; set-up: key: +++: Maximum Fungal Growth; ++: Moderate Fungal Growth; +: Minimum Fungal Growth; +/−: Very little Fungal Growth; −: No Fungal Growth; conditions: 4 mg/mL of agar; 12th day after inoculation
Protocol: as §1

[5] = tested on: Epidermophyton floccosum; test: as above; format: cell-based; set-up: key: +++: Maximum Fungal Growth; ++: Moderate Fungal Growth; +: Minimum Fungal Growth; +/−: Very little Fungal Growth; −: No Fungal Growth; conditions: 4 mg/mL of agar; 12th day after inoculation
Protocol: as §1

[6] = tested on: Pityrosporum ovale; test: Direct addition into the Pityrosporum agar; format: cell-based; set-up: key to Pityrosporum ovale growth: +++: Maximum Growth; ++: Moderate Growth; +: Minimum Growth; +/−: Very Little Growth; −: No Growth; conditions: for Pityrosporum ovale growth: 4 mg/ml in the agar, 18 hours after inoculation
Protocol: as §1, with “The slants were incubated at 25-28 ° C. for 10-12 days, and the growth of the fungus was recorded every second day. The results in Table 2 indicate growth at the 12th day of inoculation.” left out

[7] = tested on: Trichophyton mentagrophyte; test: Agar dilution method, growth on Sabouraud dextrose agar slants; format: cell-based, Trichophyton mentagrophytes; set-up: key to Fungal growth: +++: Maximum Fungal Growth; ++: Moderate Fungal Growth; +: Minimum Fungal Growth; +/−: Very little Fungal Growth; −: No Fungal Growth; conditions: for Fungal growth: 12th day after inoculation
Protocol: (§2) Agar dilution method. Sabouraud Dextrose Agar (Difco Laboratories, Michigan) was prepared according to the manufacturer's instructions. Five ml was dispensed in a 100×25 mm tube and autoclaved. To each tube containing 5.0 ml of liquid agar at 45° C., 0.5, 0.25, 0.12, or 0.063 ml of a DMSO solution of the compound was added to give the final indicated concentrations in Table 2. The agar was then solidified in slants. Fungal cultures were inoculated. The slants were incubated at 25-28° C. for 10-12 days, and the growth of the fungus was recorded every second day.

[8] = tested on: Epidermophyton floccosum; test: as above; format: cell-based; set-up: key to Fungal growth: +++: Maximum Fungal Growth; ++: Moderate Fungal Growth; +: Minimum Fungal Growth; +/−: Very little Fungal Growth; −: No Fungal Growth; conditions: 12th day after inoculation
Protocol: as §2

[9] = tested on: Microsporum gypseum; test: as above; format: cell-based; set-up: key: +++: Maximum Fungal Growth; ++: Moderate Fungal Growth; +: Minimum Fungal Growth; +/−: Very little Fungal Growth; −: No Fungal Growth; conditions: 12th day after inoculation
Protocol: as §2

[10] = tested on: Pityrosporum ovale; test: as above; format: cell-based; set-up: key: +++: Maximum Fungal Growth; ++: Moderate Fungal Growth; +: Minimum Fungal Growth; +/−: Very little Fungal Growth; −: No Fungal Growth; conditions: 12th day after inoculation
Protocol: as §2

[11] = tested on: Trichophyton rubrum; test: as above; format: cell-based; set-up: key: +++: Maximum Fungal Growth; ++: Moderate Fungal Growth; +: Minimum Fungal Growth; +/−: Very little Fungal Growth; −: No Fungal Growth; conditions: 12th day after inoculation
Protocol: as §2

[12] = tested on: Microsporum canis; test: as above; format: cell-based; set-up: key: +++: Maximum Fungal Growth; ++: Moderate Fungal Growth; +: Minimum Fungal Growth; +/−: Very little Fungal Growth; −: No Fungal Growth; conditions: 12th day after inoculation
Protocol: as §2

[13] = tested on: Microsporum audouinni; test: as above; format: cell-based, Microsporum audouinii; set-up: key: +++: Maximum Fungal Growth; ++: Moderate Fungal Growth; +: Minimum Fungal Growth; +/−: Very little Fungal Growth; −: No Fungal Growth; conditions: 12th day after inoculation
Protocol: as §2

[14] = tested on: Trichophyton tonsuran; test: as above; format: cell-based, Trichophyton tonsurans; set-up: key: +++: Maximum Fungal Growth; ++: Moderate Fungal Growth; +: Minimum Fungal Growth; +/−: Very little Fungal Growth; −: No Fungal Growth; conditions: 12th day after inoculation
Protocol: as §2

[15] = tested on: Microsporum audouinii; test: Summary of anti-fungal assays (direct addition, agar dilution, liquid culture); format: cell-based; conditions: stated in words (Tables 1a/1b, text to Table 5)
Protocol: This example summarizes the results of various other assays of the anti-fungal activity of betulin derivatives. Table 5 summarizes results using different assay methods—direct addition, agar dilution, and direct addition to liquid culture, as disclosed in the previous three Examples. In some cases, only one type of assay was done with a compound. In other cases, the compound was tested by multiple assays.

CC1(C)CCC23CCC4(C)C(CCC5C6(C)CCC(OC(=O)CN)C(C)(C)C6CCC54C)C2C1OC3 (stereo not shown) [Allobetulin-3-glycine]
+: Fungal growth [1] | Fungal growth [4] | Pityrosporum ovale growth [6]
++: Fungal growth [3]
−: Fungal growth [2] | Fungal growth [5]

C=C(C)[C@@H]1CC[C@]2(COC(=O)COCC(=O)O)CC[C@]3(C)[C@H](CC[C@@H]4[C@@]5(C)CC[C@H](OC(=O)COCC(=O)O)C(C)(C)[C@@H]5CC[C@]43C)[C@@H]12 [Betulin-3,28-didiglycolate]
−: Fungal growth ([7]; 1000 μg/ml) | Fungal growth ([8]; 500 μg/ml) | Fungal growth ([8]; 1000 μg/ml) | Fungal growth ([9]; 1000 μg/ml) | Fungal growth ([11]; 1000 μg/ml) | Fungal growth ([12]; 1000 μg/ml) | Fungal growth ([13]; 500 μg/ml) | Fungal growth ([13]; 1000 μg/ml) | Fungal growth ([14]; 1000 μg/ml)
+/−: Fungal growth ([7]; 500 μg/ml) | Fungal growth ([10]; 1000 μg/ml)
+: Fungal growth ([7]; 125 μg/ml) | Fungal growth ([7]; 250 μg/ml) | Fungal growth ([8]; 250 μg/ml) | Fungal growth ([11]; 250 μg/ml) | Fungal growth ([11]; 500 μg/ml) | Fungal growth ([12]; 500 μg/ml) | Fungal growth ([14]; 250 μg/ml) | Fungal growth ([14]; 500 μg/ml)
++: Fungal growth ([8]; 125 μg/ml) | Fungal growth ([9]; 500 μg/ml) | Fungal growth ([10]; 500 μg/ml) | Fungal growth ([11]; 125 μg/ml) | Fungal growth ([13]; 125 μg/ml) | Fungal growth ([13]; 250 μg/ml) | Fungal growth ([14]; 125 μg/ml)
+++: Fungal growth ([9]; 125 μg/ml) | Fungal growth ([9]; 250 μg/ml) | Fungal growth ([10]; 125 μg/ml) | Fungal growth ([10]; 250 μg/ml) | Fungal growth ([12]; 125 μg/ml) | Fungal growth ([12]; 250 μg/ml)
against Trichophyton mentagrophytes: best antifungal or anti-yeast activity by the agar dilution method ([7]; against Trichophyton mentagrophytes)

C=C(C)[C@@H]1CC[C@]2(COC(=O)CCCC(=O)O)CC[C@]3(C)[C@H](CC[C@@H]4[C@@]5(C)CC[C@H](OC(=O)CCCC(=O)O)C(C)(C)[C@@H]5CC[C@]43C)[C@@H]12 [Betulin-3,28-diglutarate]
inhibited the growth: Growth inhibition of Pityrosporum ovale by the direct addition method ([6]; 4 mg/ml)
+/−: Pityrosporum ovale growth [6]
−: Fungal growth [2] | Fungal growth [5]
+: Fungal growth [1] | Fungal growth [3] | Fungal growth [4]

C=C(C)[C@@H]1CC[C@]2(COC(=O)/C=C\C(=O)O)CC[C@]3(C)[C@H](CC[C@@H]4[C@@]5(C)CC[C@H](OC(=O)/C=C\C(=O)O)C(C)(C)[C@@H]5CC[C@]43C)[C@@H]12 [Betulin-3,28-dimaleate]
+: Fungal growth [3] | Fungal growth [4] | Pityrosporum ovale growth [6]
against Microsporum audouinii: best anti-fungal or anti-yeast activity by the direct addition method ([1]; against Microsporum audouinii)
Microsporum audouinii: Active against Microsporum audouinii [15]
−: Fungal growth [1] | Fungal growth [2] | Fungal growth [5]

C=C(C)C1CCC2(CO)CCC3(C)C(CCC4C5(C)CCC(OC(=O)C=CC(=O)O)C(C)(C)C5CCC43C)C12 (stereo not shown) [Betulin-3-maleate]
+++: Fungal growth ([9]; 125 μg/ml) | Fungal growth ([10]; 125 μg/ml) | Fungal growth ([10]; 250 μg/ml)
−: Fungal growth ([7]; 1000 μg/ml) | Fungal growth ([8]; 500 μg/ml) | Fungal growth ([8]; 1000 μg/ml) | Fungal growth ([9]; 1000 μg/ml) | Fungal growth ([11]; 1000 μg/ml) | Fungal growth ([12]; 1000 μg/ml) | Fungal growth ([13]; 500 μg/ml) | Fungal growth ([13]; 1000 μg/ml) | Fungal growth ([14]; 1000 μg/ml)
++: Fungal growth ([7]; 125 μg/ml) | Fungal growth ([8]; 125 μg/ml) | Fungal growth ([9]; 250 μg/ml) | Fungal growth ([9]; 500 μg/ml) | Fungal growth ([10]; 500 μg/ml) | Fungal growth ([11]; 125 μg/ml) | Fungal growth ([11]; 250 μg/ml) | Fungal growth ([14]; 125 μg/ml) | Fungal growth ([14]; 250 μg/ml)
+/−: Fungal growth ([7]; 500 μg/ml) | Fungal growth ([10]; 1000 μg/ml) | Fungal growth ([12]; 250 μg/ml) | Fungal growth ([12]; 500 μg/ml) | Fungal growth ([13]; 125 μg/ml) | Fungal growth ([13]; 250 μg/ml)
+: Fungal growth ([7]; 250 μg/ml) | Fungal growth ([8]; 250 μg/ml) | Fungal growth ([11]; 500 μg/ml) | Fungal growth ([12]; 125 μg/ml) | Fungal growth ([14]; 500 μg/ml)

COC1=CC(=O)C[C@@H](C)[C@]12Oc1c(Cl)c(OC)cc(OC)c1C2=O [Griseofulvin, reference compound]
+: Fungal growth ([7]; 250 μg/ml) | Fungal growth ([8]; 250 μg/ml) | Pityrosporum ovale growth [6]
+++: Fungal growth ([10]; 125 μg/ml) | Fungal growth ([10]; 250 μg/ml)
+/−: Fungal growth ([9]; 125 μg/ml) | Fungal growth ([9]; 250 μg/ml) | Fungal growth ([11]; 125 μg/ml) | Fungal growth ([11]; 250 μg/ml) | Fungal growth ([12]; 125 μg/ml) | Fungal growth ([12]; 250 μg/ml) | Fungal growth ([14]; 125 μg/ml) | Fungal growth ([14]; 250 μg/ml)
−: Fungal growth ([7]; 500 μg/ml) | Fungal growth ([7]; 1000 μg/ml) | Fungal growth ([8]; 500 μg/ml) | Fungal growth ([8]; 1000 μg/ml) | Fungal growth [1] | Fungal growth [2] | Fungal growth [3] | Fungal growth [4] | Fungal growth [5] | Fungal growth ([9]; 500 μg/ml) | Fungal growth ([9]; 1000 μg/ml) | Fungal growth ([10]; 1000 μg/ml) | Fungal growth ([11]; 500 μg/ml) | Fungal growth ([11]; 1000 μg/ml) | Fungal growth ([12]; 500 μg/ml) | Fungal growth ([12]; 1000 μg/ml) | Fungal growth ([13]; 125 μg/ml) | Fungal growth ([13]; 250 μg/ml) | Fungal growth ([13]; 500 μg/ml) | Fungal growth ([13]; 1000 μg/ml) | Fungal growth ([14]; 500 μg/ml) | Fungal growth ([14]; 1000 μg/ml)
++: Fungal growth ([7]; 125 μg/ml) | Fungal growth ([8]; 125 μg/ml) | Fungal growth ([10]; 500 μg/ml)

C=C(C)C1CCC2(C)CCC3(C)C(CCC4C5(C)CCC(OC(=O)CCC(=O)O)C(C)(C)C5CCC43C)C12 (stereo not shown) [Lupeol-3-succinate]
+: Fungal growth [1] | Fungal growth [3] | Fungal growth [4] | Pityrosporum ovale growth [6]
−: Fungal growth [2] | Fungal growth [5]
